Measured values reported in patent publication US8269000B2, “Substituted pyrimidine and triazine compounds” (Gruenenthal GmbH, priority 2008, dated 2012).

molecular target: T1, rat B1R (Rattus norvegicus, UniProt P97583); assay: FLIPR Ca2+ functional study on bradykinin receptor 1 (rB1R CHO K1 cells); assay type: cell-based; conditions: % inhibition rat B1R at 10 μM
T1 construct: expressed in transfected cells; host or cells: CHO K1 cells
T1 sequence (P97583 1-337): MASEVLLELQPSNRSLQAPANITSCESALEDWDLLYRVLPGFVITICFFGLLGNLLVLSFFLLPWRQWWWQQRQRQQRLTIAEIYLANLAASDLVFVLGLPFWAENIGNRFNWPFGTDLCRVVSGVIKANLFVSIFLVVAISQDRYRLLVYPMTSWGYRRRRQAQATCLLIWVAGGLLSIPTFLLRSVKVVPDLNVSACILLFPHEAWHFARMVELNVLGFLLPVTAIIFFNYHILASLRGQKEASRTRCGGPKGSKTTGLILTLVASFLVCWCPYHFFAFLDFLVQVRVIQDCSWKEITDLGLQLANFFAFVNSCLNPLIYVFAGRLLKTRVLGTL
How it was run: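 CHO K1 cells stably expressing human or rat B1R were loaded with Fluo-4 and read on FLIPR (ex 488/em 540 nm, peak counts). Test compound (10 μM, or a concentration range for IC50) was added first for % activation versus control agonist; after 10-20 min, EC80 Lys-Des-Arg9-bradykinin (human) or Des-Arg9-bradykinin (rat) was added, giving % inhibition of maximum. n=2-3, N≥2.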

Compared with `COc1cc(C)c(S(=O)(=O)N2CCCCC2COc2ccnc(N3CCN(c4ncccn4)CC3)n2)c(C)c1` (centres unmarked) [H_CC-004, 4-[[1-(4-methoxy-2,6-dimethylphenyl)sulfonyl-2-pipendinyl]methoxy]-2-[4-(2-pyrimidinyl)-1-piperazinyl]pyrimidine], `COc1cc(C)c(S(=O)(=O)N2CCC[C@H]2COc2ccnc(N3CCC(c4nc(-c5ccncc5)no4)CC3)n2)c(C)c1` [H_CC-048] is higher in “% inh. (rat B1R) 10 μM” value: 57% for the first, 63% for the second.

same assay, conditions: CHO-K1, % inhibition rat B1R at 10 μM, read-out: % inh. (rat B1R) 10 μM

Going from `COc1cc(C)c(S(=O)(=O)N2CCCCC2COc2nccc(N3CCC(c4ccccc4)(N4CCCC4)CC3)n2)c(C)c1` (centres unmarked) [G_CC-121, 2-[[1-[(4-methoxy-2,6-dimethyl-phenyl)sulfonyl]-piperidin-2-yl]-methoxy]-4-(4-phenyl-4-pyrrolidin-1-yl-piperidin-1-yl)-pyrimidine] to `COc1cc(C)c(S(=O)(=O)N2CCC[C@H]2COc2nccc(N3CCC(c4ccccc4)(N4CCCC4)CC3)n2)c(C)c1` [G_CC-115, 2-[[(2S)-1-[(4-methoxy-2,6-dimethyl-phenyl)sulfonyl]-pyrrolidin-2-yl]-methoxy]-4-(4-phenyl-4-pyrrolidin-1-yl-piperidin-1-yl)-pyrimidine], the inhibition at 10 µM rises from 75% to 81%.

First: COc1cc(C)c(S(=O)(=O)N2CCCCC2COc2ccnc(N3CCC(OCCN4CCCC4)(c4cccnc4)CC3)n2)c(C)c1 (centres unmarked) [H_CC-035, 4-[[1-(4-methoxy-2,6-dimethylphenyl)sulfonyl-2-piperidinyl]methoxy]-2-[4-(3-pyridyl)-4-(2-1-pyrrolidinylethoxy)-1-piperidinyl]pyrimidine]
Second: COc1cc(C)c(S(=O)(=O)N2CCCCC2COc2ccnc(N3CCC(CCCN4CCCC4)(c4cccnc4)CC3)n2)c(C)c1 (centres unmarked) [H_CC-082, 4-[[1-[(4-methoxy-2,6-dimethyl-phenyl)sulfonyl]-piperidin-2-yl]-methoxy]-2-[4-pyridin-3-yl-4-(3-pyrrolidin-1-yl-propyl)piperidin-1-yl]-pyrimidine]
The inhibition at 10 µM of the first is higher: 86% for the first, 72% for the second.

Compared with `CCCCC1(N(C)C)CCN(CCN(C)c2nccc(OCC3CCCCN3S(=O)(=O)c3c(C)cc(OC)cc3C)n2)CC1` (centres unmarked) [H_CC-045, 2-(4-butyl-4-dimethylamino-piperidin-1-yl)-ethyl-[4-[[1-[(4-methoxy-2,6-dimethyl-phenyl)sulfonyl]-piperidin-2-yl]-methoxy]-pyrimidin-2-yl]-methyl-amine], `CCCCC1(N(C)C)CCN(CCN(C)c2nccc(OC3CCCN(S(=O)(=O)c4c(C)cc(OC)cc4C)C3)n2)CC1` (centres unmarked) [H_CC-053, 2-(4-butyl-4-dimethylamino-piperidin-1-yl)-ethyl-[4-[1-[(4-methoxy-2,6-dimethyl-phenyl)sulfonyl]-piperidin-3-yl]oxy-pyrimidin-2-yl]-methyl-amine] is lower in inhibition at 10 µM: 96% for the first, 95% for the second.

First: COc1cc(C)c(S(=O)(=O)N2CCCCC2COc2ccnc(N3CCN(C4CCN(C)CC4)CC3)n2)c(C)c1 (centres unmarked) [H_CC-001, 4-[[1-(4-methoxy-2,6-dimethylphenyl)sulfonyl-2-piperidinyl]methoxy]-2-[4-(1-methyl-4-piperidinyl)-1-piperazinyl]pyrimidine]
Second: COc1cc(C)c(S(=O)(=O)N2CCC[C@H]2COc2ccnc(N3CCC(CCN4CCCC4)CC3)n2)c(C)c1 [H_CC-009, 4-[[(2S)-1-(4-methoxy-2,6-dimethylphenyl)sulfonyl-2-pyrrolidinyl]methoxy]-2-[4-(2-1-pyrrolidinylethyl)-1-piperidinyl]pyrimidine]
The inhibition at 10 µM of the first is lower: 65% for the first, 85% for the second.

Going from `COc1cc(C)c(S(=O)(=O)N2c3ccccc3C[C@H]2COc2nccc(N(C)CCN3CCC(c4ccccc4)(N4CCCC4)CC3)n2)c(C)c1` [G_CC-096, [2-[[(2S)-1-[(4-methoxy-2,6-dimethyl-phenyl)sulfonyl]-2,3-dihydro-1H-indol-2-yl]-methoxy]-pyrimidin-4-yl]-methyl-[2-(4-phenyl-4-pyrrolidin-1-yl-piperidin-1-yl)-ethyl]-amine] to `COc1cc(C)c(S(=O)(=O)N2c3ccccc3C[C@H]2COc2nccc(N(C)CCN3CCC(c4ccccc4)(N(C)C)CC3)n2)c(C)c1` [G_CC-094, 2-(4-dimethylamino-4-phenyl-piperidin-1-yl)-ethyl-[2-[[(2S)-1-[(4-methoxy-2,6-dimethyl-phenyl)sulfonyl]-2,3-dihydro-1H-indol-2-yl]-methoxy]-pyrimidin-4-yl]-methyl-amine], the inhibition at 10 µM rises from 101% to 102%.

Compared with `COc1cc(C)c(S(=O)(=O)N2CCCCC2COc2ccnc(N3CCCC3Cc3ccccn3)n2)c(C)c1` (centres unmarked) [H_CC-078, 4-[[1-[(4-methoxy-2,6-dimethyl-phenyl)sulfonyl]-piperidin-2-yl]-methoxy]-2-[2-(pyridin-2-yl-methyl)-pyrrolidin-1-yl]-pyrimidine], `COc1cc(C)c(S(=O)(=O)N2CCCCC2COc2ccnc(N3CCCN(Cc4ccccn4)CC3)n2)c(C)c1` (centres unmarked) [H_CC-042, 1-[4-[[1-[(4-methoxy-2,6-dimethyl-phenyl)sulfonyl]-piperidin-2-yl]-methoxy]-pyrimidin-2-yl]-4-(pyridin-2-yl-methyl)-[1,4]diazepan] is lower in inhibition at 10 µM: 77% for the first, 61% for the second.

Compared with `COc1cc(C)c(S(=O)(=O)N2CC(Oc3nccc(N(C)CCN4CCC(c5ccccc5)(N(C)C)CC4)n3)C2)c(C)c1` [G_CC-123, 2-(4-dimethylamino-4-phenyl-piperidin-1-yl)-ethyl-[2-[1-[(4-methoxy-2,6-dimethyl-phenyl)sulfonyl]-azetidin-3-yl]oxy-pyrimidin-4-yl]-methyl-amine], `COc1cc(C)c(S(=O)(=O)N2CCC[C@H]2COc2nccc(N(C)CCN3CCC(c4ccccc4)(N(C)C)CC3)n2)c(C)c1` [G_CC-088, 2-(4-dimethylamino-4-phenyl-piperidin-1-yl)-ethyl-[2-[[(2S)-1-[(4-methoxy-2,6-dimethyl-phenyl)sulfonyl]-pyrrolidin-2-yl]-methoxy]-pyrimidin-4-yl]-methyl-amine] is higher in inhibition at 10 µM: 81% for the first, 100% for the second.

First: COc1cc(C)c(S(=O)(=O)N2CCCCC2COc2nccc(N3CCC(C)(N4CCOCC4)CC3)n2)c(C)c1 (centres unmarked) [G_CC-131, 4-[1-[2-[[1-[(4-methoxy-2,6-dimethyl-phenyl)sulfonyl]-piperidin-2-yl]-methoxy]-pyrimidin-4-yl]-4-methyl-piperidin-4-yl]-morpholine]
Second: COc1cc(C)c(S(=O)(=O)N2CCCCC2COc2nccc(N3CCC(c4ccccc4)(N(C)C)CC3)n2)c(C)c1 (centres unmarked) [G_CC-113, [1-[2-[[1-[(4-methoxy-2,6-dimethyl-phenyl)sulfonyl]-piperidin-2-yl]-methoxy]-pyrimidin-4-yl]-4-phenyl-piperidin-4-yl]-dimethyl-amine]
The inhibition at 10 µM of the first is higher: 88% for the first, 79% for the second.

First: COc1cc(C)c(S(=O)(=O)N2CCCC(Oc3ccnc(N4CCC(c5ccccc5)(N(C)C)CC4)n3)C2)c(C)c1 (centres unmarked) [H_CC-064, [1-[4-[1-[(4-methoxy-2,6-dimethyl-phenyl)sulfonyl]-piperidin-3-yl]oxy-pyrimidin-2-yl]-4-phenyl-piperidin-4-yl]-dimethyl-amine]
Second: COc1cc(C)c(S(=O)(=O)N2CC(Oc3ccnc(N4CCC(CCN5CCCC5)CC4)n3)C2)c(C)c1 [H_CC-014, 4-[[1-(4-methoxy-2,6-dimethylphenyl)sulfonyl-3-azetidinyl]oxy]-2-[4-(2-1-pyrrolidinylethyl)-1-piperidinyl]pyrimidine]
The inhibition at 10 µM of the first is higher: 61% for the first, 53% for the second.

Going from `COc1cc(C)c(S(=O)(=O)N2CCC[C@H]2COc2ccnc(N(C)CCN3CCC(Oc4ccncc4)CC3)n2)c(C)c1` [H_CC-051, [4-[[(2S)-1-[(4-methoxy-2,6-dimethyl-phenyl)sulfonyl]-pyrrolidin-2-yl]-methoxy]-pyrimidin-2-yl]-methyl-[2-(4-pyridin-4-yloxy-piperidin-1-yl)-ethyl]amine] to `COc1cc(C)c(S(=O)(=O)N2CCC[C@H]2COc2ccnc(N3CCN(c4ncccn4)CC3)n2)c(C)c1` [H_CC-011, 4-[[(2S)-1-(4-methoxy-2,6-dimethylphenyl)sulfonyl-2-pyrrolidinyl]methoxy]-2-[4-(2-pyrimidinyl)-1-piperazinyl]pyrimidine], the inhibition at 10 µM falls from 99% to 56%.

Going from `COc1cc(C)c(S(=O)(=O)N(C)CCOc2nccc(N3CCC(O)(c4cccnc4)CC3)n2)c(C)c1` [G_CC-008, N-[2-[[4-[4-hydroxy-4-(3-pyridyl)-1-piperidinyl]-2-pyrimidinyl]oxy]ethyl]-4-methoxy-N,2,6-trimethylbenzenesulfonamide] to `COc1cc(C)c(S(=O)(=O)N(C)C(COc2nccc(N3CCN(C(=O)c4cccnc4)CC3)n2)c2ccccc2)c(C)c1` (centres unmarked) [G_CC-064, 4-methoxy-N,2,6-trimethyl-N-[2-[[4-[4-[oxo-(3-pyridyl)methyl]-1-piperazinyl]-2-pyrimidinyl]oxy]-1-phenylethyl]benzenesulfonamide], the inhibition at 10 µM falls from 59% to 55%.

Going from `COc1cc(C)c(S(=O)(=O)N2CCCCC2COc2ccnc(N3CCC4(CCN(Cc5ccc(F)cc5)C4=O)CC3)n2)c(C)c1` (centres unmarked) [H_CC-030, 3-[(4-fluorophenyl)methyl]-8-[4-[[1-(4-methoxy-2,6-dimethylphenyl)sulfonyl-2-piperidinyl]methoxy]-2-pyrimidinyl]-3,8-diazaspiro[4.5]decan-4-one] to `COc1cc(C)c(S(=O)(=O)N2c3ccccc3C[C@H]2COc2nccc(N(C)CCCN3CCC(c4ccccc4)(N(C)C)CC3)n2)c(C)c1` [G_CC-076, 3-(4-dimethylamino-4-phenyl-piperidin-1-yl)-propyl-[2-[[(2S)-1-[(4-methoxy-2,6-dimethyl-phenyl)sulfonyl]-2,3-dihydro-1H-indol-2-yl]-methoxy]-pyrimidin-4-yl]-methyl-amine], the inhibition at 10 µM rises from 49% to 105%.
